Test results as given in patent US6632805B1, “Methods for using water-stabilized organosilanes” (Emory University, priority 1996, dated 2003).

Experiments:
[1] = Solubility in water and other solvents
[2] = Stability in water judged by appearance of the preparation (clear/hazy)

Row | SMILES | Appearance after addition to water containing pentaerythritol ([1]; water containing pentaerythritol, after standing overnight) | Solubility in water ([1]; water, no stabilizer) | Stability (appearance of the preparation) ([2]; initial pH 1.15, after 1 wk.) | Stability (appearance of the preparation) ([2]; initial pH 2.0, after 1 mo.) | Stability (appearance of the preparation) ([2]; initial pH 2.0, after 1 wk.) | Stability (appearance of the preparation) ([2]; initial pH 5.7, after 1 mo.) | Stability (appearance of the preparation) ([2]; initial pH 5.7, after 1 wk.) | Stability (appearance of the preparation) ([2]; initial pH 6.5, after 1 mo.) | Stability (appearance of the preparation) ([2]; initial pH 6.5, after 1 wk.) | Stability (appearance of the preparation) ([2]; initial pH 8.5, after 1 wk.)
1 | CO[Si](CCCCl)(OC)OC [Chloropropyl trimethoxysilane] | clear solution | insoluble |  |  |  |  |  |  |  | 
2 | CCCCCCCCCCCCCCCCCC[N+](C)(C)CCC[Si](OC)(OC)OC.[Cl-] [none] |  |  | hazy | hazy | clear | hazy | clear | hazy | clear | hazy/gel
